In data set [1] the test system is MSSA Staph. aureus Smith 819. In words: MIC (microbiological activity). In kind it is cell-based. The note with it: Staphylococcus aureus.
Data set [2] concerns Candida albicans SKF2270. In words: MIC by broth microdilution (NCCLS), IsoB0 and reference compounds. In kind it is cell-based. In general terms: Broth dilution looks for growth in wells or tubes with falling amounts of substance.
The subject of data set [3] is gram-negative bacteria. Described as above. In kind it is cell-based. The procedure:
(§1) MICs were determined by the broth microdilution methodology following the standard NCCLS procedure, with or without 30% bovine serum, using bacterial inocula of approximately 5×10^5 CFU/mL. Tests were read after 20-24 h incubation at 35° C.

The subject of data set [4] is Candida albicans SKF 2270. In words: MIC by broth microdilution (NCCLS), with or without 30% bovine serum (Example 19). The conditions noted are these: Candida albicans, SKF2270. In kind it is cell-based. The protocol: MICs were determined by the broth microdilution methodology following the standard NCCLS procedure (NCCLS Document M7-A6, Vol. 23, No. 2, “Methods for dilution antimicrobial susceptibility tests for bacteria that grow aerobically.” Approved Guideline. January 2003, which can be herein incorporated by reference in its entirety), with or without 30% adult bovine serum (BS) (PAA Laboratories GmBH, Haidmannweg Pasching Austria), using bacterial innocula at approximately 5×10^5 CFU/ml. The media employed included cation-adjusted Müller Hinton broth (Difco Laboratories, Detroit, Mich.) that was used that was adjusted with CaCl2 and MgCl2 to a final concentration of 20 mg/L and 10 mg/L, respectively. Tests were read following 20-24 hours of incubation at 35° C.

For data set [5], the system named is gram positive bacteria. The description is as above. It is filed as cell-based. The procedure:
(§2) The compounds were prepared according to the examples above and the methods described in U.S. Patent Application Publication No. 2004/0142883. Individual dalbavancin compounds were purified by HPLC. […] Before dissolution, each sample was analyzed by HPLC and quantified. […] Louis, Mo.), Gentamycin (GE) (Sigma Chemical Co., St. Louis, Mo.), Penicillin G (Pen.G) (Sigma Chemical Co., St. Louis, Mo.), and Amphotericin B (Amph.B) (Sigma Chemical Co., St. Louis, Mo.). The microorganisms used were reference strains obtained from the American Type Culture Collection (ATCC) (Rockville, Md.), SmithKline and French Laboratories (SKF), and the Upjohn Company (UC) (Kalamazoo, Mich.).

The test system of data set [6] is gram-negative bacteria. Described as above. It is filed as cell-based. The procedure: as §2
In data set [7] the test system is MRSA Staph. aureus 3817. In words: MIC (microbiological activity). It is filed as cell-based. The conditions noted are these: Staphylococcus aureus.
In data set [8] the test system is CR-BSI due to gram-positive bacterial pathogens. The data set can be described thus: Catheter-related blood stream infection (CR-BSI) trial: efficacy. The note with it: microbiological ITT population; dalbavancin 1000 mg day 1 + 500 mg day 8 IV; vancomycin 1000 mg IV every 12 hours. In kind it is in vivo, human. An excerpt:
This study evaluated the safety and efficacy (clinical and microbiological) of a weekly dosing regimen of dalbavancin in the treatment of adults with catheter-related blood stream infection (CR-BSI) due to gram-positive bacterial pathogens, relative to the standard care of treatment, vancomycin.
Patients with CR-BSI due to suspected or known Gram-positive pathogen(s) who met the inclusion/exclusion criteria were randomized to one of two treatment arms in this open-label, comparative, multi-center study. Dalbavancin was administered once weekly in weekly dalbavancin and comparator (vancomycin) was administered daily in vancomycin. Catheter removal was required for patients with Staphylococcus aureus infection; catheter management was left to the Investigator's discretion for patients with coagulase-negative staphylococci (CoNS) infection. Efficacy was clinically based on the improvement or resolution of clinical signs and symptoms of CR-BSI such that no additional antibacterials were warranted, and microbiologically on the eradication or presence of the baseline or other pathogens. […]
Efficacy was evaluated based on clinical and microbiological responses.
For the primary efficacy analysis, 95% confidence intervals were also determined, and for prognostic factor analyses using the primary efficacy variable, logistic regression was used.

For data set [9], the system named is gram-positive bacteria. In words: MIC by broth microdilution (NCCLS), IsoB0 and reference compounds. It is filed as cell-based. The procedure:
Müller Hinton broth (Difco Laboratories, Detroit, Mich., USA) adjusted with CaCl2 and MgCl2 to a final concentrations of 20 mg/L and 10 mg/L respectively.
Adult bovine serum (BS) (batch A05123-159 PAA Laboratories GmBH Haidmannweg Pasching Austria).
The microorganisms used are reference standard strains from the American Type Culture Collection (ATCC, Rockville, USA), Smith Kline and French Laboratories (SKF) and the Upjohn Company (UC, Kalamazoo, Mich., USA).
as §1

The target of data set [10] is human α-glycoprotein. In words: Protein binding by isothermal titration microcalorimetry. The note with it: 25° C. (In ITC the heat of successive injections is recorded.)
Procedure: For comparison, similar experiments with some necessary modifications were performed using teicoplanin.
Teicoplanin was studied with human albumin and α-glycoprotein.
Integrated heat effects, after correction for heats of dilution, were analyzed by non-linear regression using a simple single-site binding model with the standard Microcal ORIGIN software package. Raw data (μcal/sec) for each injection were integrated to give the total heat effect per addition, then divided by amount of injectant to give kcal/mole of injectant. The same integration was applied for control dilution effects, and this was subtracted from the actual titration data. This provided a differential of the binding curve in which the extent of binding is proportional to the total heat liberated (or absorbed). This was then analyzed by non-linear regression methods in terms of various standard binding models. The simplest model assumes simple non-competitive binding equilibrium, and gives three parameters:
The nature of data set [11]: ESI mass spectroscopy of multimers in solution. It is filed as physicochemical. The conditions noted are these: ESI-MS.
Procedure: Experiments were performed using an Applied Biosystem API III+ mass spectrometer equipped with a TurbolonSpray source, a Triple Quadrupole analyzer, operating in positive ion mode.
The mass spectra were obtained in electrospray positive mode on a Finnigan LCQ^Deca ion trap instrument previously tuned and calibrated in electrospray mode using Ultramark 1621, caffeine and MRFA (L-metionyl-arginyl-phenilalanyl-arginine).
Where [12] appears, read: Enterococcus faecalis, ATCC7080.
Setting [13] is: Enterococcus faecalis, ATCC29212.
Setting [14] is: Staphylococcus aureus, ATCC19636.
Setting [15] is: Staphylococcus aureus, ATCC29213.
Setting [16] is: Staphylococcus epidermidis, ATCC12228.

Values after ≈ are worked out from the molar mass of the structure shown. Like-named read-outs stand apart in the source and are kept apart here. Some results are limits rather than exact numbers.

A word on the MIC: it is the lowest concentration that inhibits growth of the organism. A higher MIC goes with weaker potency.

On to `CN[C@H](CC(C)C)C(=O)N[C@H]1C(=O)N[C@@H](CC(N)=O)C(=O)N[C@H]2C(=O)N[C@H]3C(=O)N[C@H](C(=O)N[C@H](C(=O)O)c4cc(O)cc(O)c4-c4cc3ccc4O)[C@H](O)c3ccc(c(Cl)c3)Oc3cc2cc(c3O[C@@H]2O[C@H](CO)[C@@H](O)[C@H](O)[C@H]2O[C@H]2C[C@](C)(N)[C@H](O)[C@H](C)O2)Oc2ccc(cc2Cl)[C@H]1O` [Vancomycin, vancomycin, reference compound], for which the MIC is 0.5 mg/L (≈ 0.345 µM) in data set [1]; more than 128 mg/L in data set [2]; more than 128 mg/L in data set [3]; more than 128 mg/L in data set [3] (Escherichia coli); more than 128 mg/L in data set [3] (Escherichia coli, ATCC25922); more than 128 mg/L in [3] (Proteus vulgaris, ATCC881). Also, the minimum inhibitory concentration (MIC) in [4] is more than 128 mg/L; in data set [5] it was 1 mg/L (≈ 0.69 µM); in [5] (setting [12]) it was 1 mg/L (≈ 0.69 µM); in [5] (setting [13]), 2 mg/L (≈ 1.38 µM); in [5] (setting [14]), 1 mg/L (≈ 0.69 µM); in data set [5] (setting [15]), 2 mg/L (≈ 1.38 µM). The MIC was 2 mg/L (≈ 1.38 µM) in [5] (setting [16]); 0.5 mg/L (≈ 0.345 µM) in data set [5] (Streptococcus pneumoniae, UC41); more than 128 mg/L in data set [6]; more than 128 mg/L in data set [6] (Escherichia coli); more than 128 mg/L in data set [6] (Escherichia coli, ATCC25922); more than 128 mg/L in data set [6] (Proteus vulgaris, ATCC881). Moreover, the MIC in [7] was 0.5 mg/L (≈ 0.345 µM); in data set [9] (setting [12]) it was 1 mg/L (≈ 0.69 µM); in data set [9] (setting [13]), 2 mg/L (≈ 1.38 µM); in data set [9] (setting [14]), 1 mg/L (≈ 0.69 µM); in data set [9] (setting [15]) it was 2 mg/L (≈ 1.38 µM); in data set [9] (setting [16]) it was 2 mg/L (≈ 1.38 µM). In addition, the MIC worked out at 0.5 mg/L (≈ 0.345 µM) in data set [9] (Streptococcus pneumoniae, UC41) and 1 mg/L (≈ 0.69 µM) in data set [9] (Streptococcus pyogenes). In addition, in data set [8], the “overall response success rate at TOC” value was found to be 50.0%.

Take teicoplanin: in data set [10], the “apparent binding affinity Ka, α-glycoprotein” value is given as 0.07 (±0.01) × 10^5M^−1. The multimers in solution result in data set [11] is listed as “does not show multimeric complexes”.

Values taken from patent publication US20170190744A1 (Vicuron Pharmaceuticals, Inc., priority 2015, published 2017).
